From patent publication US20250170224A1, “METHODS AND COMPOSITIONS FOR TREATING MICROGLIAL DYSFUNCTION AND IMPROVING METABOLIC DYSFUNCTION” (Ultimate Medicine AG, priority 2021, published 2025)

Key:
[1] = healthy subjects; ingested lactulose 5 grams, mannitol 1 gram; cited from earlier work
gut barrier / microglia = assay: Aged SPF mice (18 months old) treated orally every third day for 10 weeks with EA or IAP; assay type: in vivo, mouse (C57BL/6); conditions: for ATP levels in microglia / cellular ROS in microglia (CellROX): compared to vehicle-treated aged mice; for CML accumulation in the brain (LC-MS) / gut permeability (FITC-dextran 4 kDa translocation to the circulation): oral, every 3 days for 10 weeks
Protocol: (§1) Specific pathogen-free (SPF) and germ-free (GF) housed C57BL/6 mice were analyzed at 6-10 weeks of age (young-adult) and 96-104 weeks of age (aged). Mice of the aged group in the nontargeted metabolomics analysis were 17-18 months old. Except for nontargeted metabolomics and microbiota profiling, where only male mice were used, all groups included mice from both sexes. Mice were housed under a 12-hour light/12-hour dark cycle and temperatures of 18-23° C. with 40-60% humidity, with food and water given ad libitum. To avoid cage effects, mice from at least three different cages per experimental group were analyzed. For the treatment, young-adult mice (8 weeks old) were injected intraperitoneally or by oral gavage with CML (0.735 mg kg^−1; Iris Biotech), trimethylamine N-oxide (TMAO) (3.95 mg kg^−1; Sigma-Aldrich), sodium acetate (59 mg kg^−1; Sigma-Aldrich) and sodium propionate (4.61 mg kg^−1; Sigma-Aldrich) daily for 14 days. For modulation of CML in aged animals, 18-month-old SPF housed C57BL/6 mice were treated orally every third day for 10 weeks with vehicle (20% hydroxypropyl-p-cyclodextrin in 1× phosphate-buffered saline (PBS)), 10 mg kg^−1 ellagic acid (EA) or 3,000 U kg^−1 intestinal alkaline phosphatase (IAP). To assess in vivo intestinal permeability, tracer fluorescein isothiocyanate (FITC)-labeled dextran (4 kDa: Sigma-Aldrich) was used. Briefly, mice were deprived of food 4 hours before and both food and water 4 hours after oral gavage using 200 μl of 80 mg ml^−1 FITC-dextran. Blood was collected retro-orbitally after 4 hours and fluorescence intensity was measured on fluorescence plates using an excitation wavelength of 493 nm and an emission wavelength of 518 nm. To assess in vivo intestinal permeability to CML, mice were treated with […] CML (0.36 mM). Blood was collected retro-orbitally immediately before and 4 hours after treatment. CML translocated into the circulation was measured by liquid chromatography-mass spectrometry (LC-MS). All animal experiments were approved by the local administration in Germany (Regierungsprasidium Freiburg) and were performed in accordance with the respective national, federal, and institutional regulations and the guidelines of the Federation of European Laboratory Animal Science Associations.
Cell sorting for RT-qPCR and RNA sequencing (RNA-seq) was performed on a MoFlo Astrios (Beckman Coulter; FIG. 7a). Before surface staining, dead cells were excluded by using the Fixable Viability Dye eFluor 780 (1:1,000 dilution; Thermo Fisher Scientific) followed by incubation with Fc receptor blocking antibody CD16/CD32 (1:200 dilution, clone 2.4G2; BD Bioscience). The following antibodies were used for surface staining: anti-CD45 (1:200 dilution, clone 30-F11; Thermo Fisher Scientific); anti-CD11b (1:200 dilution, clone MI/70; Thermo Fisher Scientific). The following lineage antibodies were used (all at 1:300 dilution): anti-CD3 (clone 17A2; BioLegend); anti-CD19 (clone 6D5; BioLegend); anti-CD45R (clone RA3-6B2; BD Biosciences); Ly6C (clone AL-21; BD Biosciences); Ly6G (clone 1A8; BD Biosciences). To assess microglial cellular reactive oxidative species (ROS), the CellROX DeepRed Reagent ([…]; Thermo Fisher Scientific) was used. To assess mitochondrial activity, Tetramethylrhodamine, Methyl Ester, Perchlorate (50 nM; Thermo Fisher Scientific) and MitoTracker Green FM (20 nM; Thermo Fisher Scientific) were used. Dead cells were excluded by short incubation with DAPI before flow cytometry analysis with the FACSCanto II (BD Biosciences). Data were acquired with the FACSDiva v.6 software (Becton Dickinson). Postacquisition analysis was performed with FlowJo v.10 (FlowJo LLC).
To avoid the cellular stress of fluorescence-activated cell sorting (FACS), microglial cells were isolated using the magnetic-activated cell sorting (MACS) separation system (Miltenyi Biotec; FIG. 7b). […]

microglia = assay type: in vivo; conditions: young-adult mice, i.p. once per day for two weeks; for intracellular ROS production / oxidative stress in microglia: CellROX
Protocol: as §1, with “Mice” for “Specific pathogen-free (SPF) and germ-free (GF) housed C57BL/6 mice were analyzed at 6-10 weeks of age (young-adult) and 96-104 weeks of age (aged). Mice”, “For the treatment, young-adult mice (8 weeks old) were injected intraperitoneally or by oral gavage with CML (0.735 mg kg^−1; Iris Biotech), trimethylamine N-oxide (TMAO) (3.95 mg kg^−1; Sigma-Aldrich), sodium acetate (59 mg kg^−1; Sigma-Aldrich) and sodium propionate (4.61 mg kg^−1; Sigma-Aldrich) daily for 14 days.” left out
Mice were lethally anesthetized with ketamine (100 mg kg^−1 body weight) and xylazine (10 mg kg^−1 body weight) followed by perfusion with 1×PBS through the left heart chamber. For histology, brains were kept overnight in 4% paraformaldehyde (PFA). For flow cytometry and magnetic-activated cell sorting (MACS) beads cell sorting, brains were dissected, homogenized and filtered through a […] mesh. […] Myelin was removed from the top layer and the cell pellet was washed once with 1×PBS followed by antibody staining.
Brain specimens from the cortex were first fixed overnight in 3% glutaraldehyde at 4° C., washed with Sorensen buffer, and then transferred to 1% osmium tetroxide for 2 hours at room temperature. Next, samples were dehydrated by a graded series of ethanol (30-100%) followed by 100% propylene oxide, resin/propylene oxide (1:2 (v/v)) and resin/propylene oxide (2:1 (v/v)). Samples were embedded in resin via polymerization for 24 hours at 75° C. Then, 700-nm semithin sections were cut and stained with 2% toluidine blue to define the region of interest for further preparation of 70 nm ultrathin sections using an ultramicrotome (Leica Reichert Ultracut S) after contrasting the sections with uranyl acetate and lead citrate (Leica Reichert Ultrastainer). To assess the mitochondrial phenotype in microglia, images were acquired with a ×7,900 or ×46,000 magnification using a CM100 electron microscope (Philips).
Cell sorting for RT-qPCR and RNA sequencing (RNA-seq) was performed on a MoFlo Astrios (Beckman Coulter; FIG. 7a). Before surface staining, dead cells were excluded by using the Fixable Viability Dye eFluor 780 (1:1,000 dilution; Thermo Fisher Scientific) followed by incubation with Fc receptor blocking antibody CD16/CD32 (1:200 dilution, clone 2.4G2; BD Bioscience). […] To assess microglial cellular reactive oxidative species (ROS), the CellROX DeepRed Reagent ([…]; Thermo Fisher Scientific) was used. To assess mitochondrial activity, Tetramethylrhodamine, Methyl Ester, Perchlorate (50 nM; Thermo Fisher Scientific) and MitoTracker Green FM (20 nM; Thermo Fisher Scientific) were used.

OC[C@H]1O[C@@H](O[C@@H]2[C@@H](CO)OC(O)(CO)[C@H]2O)[C@H](O)[C@@H](O)[C@H]1O (mixture of isomers) [lactulose]
normal value of excretion in urine (percentage of ingested amount) [1]: about 0.35%

O=c1oc2c(O)c(O)cc3c(=O)oc4c(O)c(O)cc1c4c23 [EA, ellagic acid]
ATP levels in microglia (gut barrier / microglia): increased ATP levels | cellular ROS in microglia (CellROX) (gut barrier / microglia): significant reduction | CML accumulation in the brain (LC-MS) (gut barrier / microglia): reduced | gut permeability (FITC-dextran 4 kDa translocation to the circulation) (gut barrier / microglia): no direct effect

C[N+](C)(C)[O-] [TMAO, trimethylamine N-oxide]
metabolic function (metabolic/mitochondrial activity) of microglia (microglia): no effect | intracellular ROS production / oxidative stress in microglia (microglia): no effect

OC[C@@H](O)[C@@H](O)[C@H](O)[C@H](O)CO [mannitol]
normal value of excretion in urine (percentage of ingested amount) [1]: ~12.3%

CC(=O)[O-].[Na+] [sodium acetate]
metabolic function (metabolic/mitochondrial activity) of microglia (microglia): no effect | intracellular ROS production / oxidative stress in microglia (microglia): no effect

CCC(=O)[O-].[Na+] [sodium propionate]
metabolic function (metabolic/mitochondrial activity) of microglia (microglia): no effect | intracellular ROS production / oxidative stress in microglia (microglia): no effect

B1: IAP: intestinal alkaline phosphatase, an endogenous enhancer of the gut barrier function (exemplary CAS No. 9001-78-9 (calf)) (protein, UniProt P19111 20-506, looked up)
Intestinal-type alkaline …: LVPVEEEDPAFWNRQAAQALDVAKKLQPIQTAAKNVILFLGDGMGVPTVTATRILKGQMNGKLGPETPLAMDQFPYVALSKTYNVDRQVPDSAGTATAYLCGVKGNYRTIGVSAAARYNQCKTTRGNEVTSVMNRAKKAGKSVGVVTTTRVQHASPAGAYAHTVNRNWYSDADLPADAQMNGCQDIAAQLVNNMDIDVILGGGRKYMFPVGTPDPEYPDDASVNGVRKRKQNLVQAWQAKHQGAQYVWNRTALLQAADDSSVTHLMGLFEPADMKYNVQQDHTKDPTLQEMTEVALRVVSRNPRGFYLFVEGGRIDHGHHDDKAYMALTEAGMFDNAIAKANELTSELDTLILVTADHSHVFSFGGYTLRGTSIFGLAPSKALDSKSYTSILYGNGPGYALGGGSRPDVNDSTSEDPSYQQQAAVPQASETHGGEDVAVFARGPQAHLVHGVEEETFVAHIMAFAGCVEPYTDCNLPAPTTATSIPD
ATP levels in microglia (gut barrier / microglia): increased ATP levels | cellular ROS in microglia (CellROX) (gut barrier / microglia): significant reduction | CML accumulation in the brain (LC-MS) (gut barrier / microglia): reduced | gut permeability (FITC-dextran 4 kDa translocation to the circulation) (gut barrier / microglia): lower gut leakiness
